Laboratory results taken from paper PMC6154605, “Multi-Anti-Parasitic Activity of Arylidene Ketones and Thiazolidene Hydrazines against Trypanosoma cruzi and Leishmania spp” (Molecules : A Journal of Synthetic Chemistry and Natural …, 2017).
Like-named read-outs stand apart in the source and are kept apart here. Marks after values point to notes of the source that are not given here. Values belong to the compound of their own block, whether it stands above or below them.

Assays:
[1] = tested on: L. infantum promastigotes; assay: Leishmanicidal activity on promastigotes, resazurin; format: cell-based, Leishmania infantum; conditions: for IC50: 48 h, read-out: IC50 ± SD Promastigotes L. infantum; for SI NCTC/ L. infantum: ratio IC50 mammalian cell / IC50 parasite (promastigotes)
Description: (§1) We initially selected compounds previously reported to have anti-T. cruzi activity from our chemical library to evaluate their leishmanicidal activity. […]. To evaluate their activity in Leishmania spp., we performed a phenotypic screening using the promastigote form of L. infantum (MHOM/FR/91/LEM-2259) and L. braziliensis ([…]) (Table 1A for the thiazolidenehydrazine derivate and Table 1B for the arylideneketones family).
(§2) A culture of L. braziliensis (MHOM/BR/75/M2904) and L. infantum (MHOM/FR/91/LEM2259V) was obtained from the Facultad de Farmacia (Universidad Complutense, Madrid, Spain). The maintenance of the strains, the form of cultivation and the isolation of the shape of the promastigote were performed following the procedures described by Roldos et al.. The promastigotes were grown at 22 °C in Schneider’s Drosophila medium supplemented with 20% FBS. The assay was performed using a modification of a previous method. Promastigotes (2 × 10^6 parasites/well) were cultivated in 96-well plastic plates. Compounds were dissolved in dimethylsulfoxide (DMSO). Different dilutions of the compounds with a final volume up to 200 µL were added. After 48 h at 26 °C, 20 µL of a 2 mM resazurin solution were added, and the oxidation-reduction was quantified at 570 and 600 nm. The solution of resazurin was prepared at 2.5 mM in phosphate buffered solution (PBS), pH 7.4, and filtered through 0.22-µm membranes prior to use. All tests were carried out in triplicate. Resazurin sodium salt was obtained from Sigma-Aldrich (St. Louis, MO, USA) and stored at 4 °C protected from light. The efficacy of each compound was estimated by calculating the IC50 values. Each antiproliferative experiment was done in duplicate, and each concentration was tested in triplicate.

[2] = tested on: L. braziliensis promastigotes; assay: as above; format: cell-based, Leishmania braziliensis; conditions: for IC50: 48 h, read-out: IC50 ± SD Promastigotes L. braziliensis; for SI NCTC/ L. braziliensis: ratio IC50 mammalian cell / IC50 parasite (promastigotes)
Description: as §1, §2

[3] = tested on: T. cruzi epimastigotes, Tulahuen 2 strain (genotype TcVI); assay: In vitro anti-T. cruzi activity, growth inhibition of epimastigotes; format: cell-based, Trypanosoma cruzi; conditions: for IC50: Trypanosoma cruzi, TULAHUEN; for Trypanocidal activity on T. cruzi in words: molecular stripping, epimastigotes
Description: For the in vitro anti-T. cruzi activity, we used epimastigotes of the Tulahuen 2 strain (genotype TcVI) grown in an axenic milieu (BHI-Tryptose). Cells from a 5–7-day-old culture were inoculated in fresh culture milieu to give an initial concentration of 1.00 × 10^6 cells/mL. The absorbance at 600 nm of the cells in culture was measured every day. At Day 5, the milieu was inoculated with different quantities of the compounds from a stock solution in DMSO (DMSO concentration in the culture milieu never exceeded 0.4%). The control was made in the presence of 0.4% DMSO and in the absence of compounds. Each concentration of compound was evaluated in duplicate. At Day 5, the absorbance of the culture was measured and related to the control. […] Each antiproliferative experiment was done in duplicate, and each concentration was tested in triplicate.

[4] = tested on: T. cruzi epimastigotes, Tulahuen 2 strain (genotype TcVI); conditions: cited from earlier work; for SI J774.1/ T. cruzi: ratio IC50 mammalian cell / IC50 parasite (epimastigotes); for IC50: read-out: IC50 ± SD Epimastigotes T. cruzi
[5] = tested on: NCTC929 fibroblasts; assay: Nonspecific cytotoxicity on fibroblasts, resazurin; format: cell-based; conditions: NCTC-929, 24 h; read-out: IC50 ± SD Fibroblast NCTC929
Description: To establish the selectivity of the compounds against the parasites, nonspecific cytotoxicity against mammalian cells, using J774.1 murine macrophages and fibroblast NCTC929, was studied for the most relevant derivatives. The selectivity indexes were calculated as the ratio between cytotoxicity for mammalian cells and the anti-parasitic activity (Table 2).
NCTC-Clone 929 were grown in minimal essential medium (Sigma) supplemented with 10% heat-inactivated FBS, penicillin G (100 U/mL) and streptomycin (100 µg/mL). Cell cultures were maintained at 37 °C in a humidified 5% CO2 atmosphere. The procedure for cell viability measurement was evaluated with resazurin by a colorimetric method. The cells were plated in 96 microtiter plates at 3.00 × 10^4 cells/well in 100 µL growth medium. The cells were grown overnight at 37 °C, 5% CO2. Thereafter, the medium was removed, and the compounds were added to 200 µL of medium for 24 h. After incubation, 20 µL of a 2 mM resazurin solution were added to each well. The plates were incubated for 3 h to allow optimal oxidation-reduction. The reduction of resazurin was determined by dual wavelength absorbance measurement at 490 and 595 nm. The background was subtracted. Each concentration was assayed three times. Medium and drug controls were used in each test as blanks.

[6] = tested on: J774.1 murine macrophages; conditions: J774.1; read-out: IC50 ± SD Murine Macrophages; cited from earlier work
[7] = Tulahuen 2 strain, read-out: IC50 ± SD Epimastigotes T. cruzi
[8] = Figure 4, molecular stripping of HIT1, read-out: Effect of structural change on trypanocidal activity (emoticon code)

- IC50 [3, 7]: > 25 µM
SMILES: CN1C/C(=C\C=C\c2ccco2)C(=O)/C(=C/C=C/c2ccco2)C1 [Pg150, (3E,5E)-3,5-Bis((E)-3-(furan-2-yl)allylidene)-1-methylpiperidin-4-one]
- IC50 ([1]; Leishmania infantum): > 25 µM
- IC50 ([2]; Leishmania braziliensis): > 25 µM
- Trypanocidal activity on T. cruzi in words [3]: the activity was completely lost

- IC50 [3, 7]: > 25 µM
SMILES: Nc1nc(-c2ccc(Cl)cc2)cs1 [GAT2012, 4(4-Chlorophenyl)-thiazol-2(3H)-ylidene-2-amine]
- Trypanocidal activity on T. cruzi in words [3]: lack of activity

SMILES: C=CCn1c(-c2ccc(Br)cc2)cs\c1=N/N=C/C(C)=C/c1ccco1 [GAT2015]
- IC50 [1]: > 25 µM
- IC50 [2]: > 25 µM

SMILES: O=C(/C=C/c1ccco1)/C=C/c1ccco1 [EA134]
- IC50 ([1]; Leishmania infantum): 6 ± 2 µM
- SI NCTC/ L. infantum [1]: 19
- IC50 ([2]; Leishmania braziliensis): 10 ± 6 µM
- SI NCTC/ L. braziliensis [2]: 11
- SI J774.1/ T. cruzi [4]: 5 ^c
- IC50 [4]: 24 ± 2 µM
- IC50 [5]: 114 ± 2 µM
- IC50 [6]: 115 ± 6 µM

SMILES: O=C1/C(=C/C=C/c2ccco2)CC/C1=C\C=C\c1ccco1 [EA161]
- IC50 ([1]; Leishmania infantum): 16 ± 4 µM
- SI NCTC/ L. infantum [1]: 47
- IC50 ([2]; Leishmania braziliensis): 18 ± 4 µM
- SI NCTC/ L. braziliensis [2]: 42
- SI J774.1/ T. cruzi [4]: 4 ^c
- IC50 [4]: 5.4 ± 1.6 µM
- IC50 [5]: 756 ± 17 µM
- IC50 [6]: 19 ± 2 µM

- IC50 [3, 7]: > 25 µM
SMILES: C=CCn1c(C(=O)CNCc2ccccc2)cs/c1=N/N=C\C=C\c1ccco1 [GATk4, 1-((Z)-3-allyl-2-((E)-((E)-3-(furan-2-yl)allylidene)hydrazono)-2,3-dihydrothiazol-4-yl)-2-(benzylamino)ethanone]
- IC50 [3, 8]: > 25 µM

SMILES: O=C1/C(=C/c2ccccc2)CCC/C1=C\c1ccccc1 [EA142]
- IC50 ([1]; Leishmania infantum): 9.6 ± 0.9 µM
- IC50 ([2]; Leishmania braziliensis): 4.2 ± 0.7 µM
- IC50 [4]: 5.1 ± 0.3 µM

- melting point: 150 to 153 °C
- IC50 [3, 7]: 11 ± 4 µM
SMILES: C=CCn1c(C(=O)CNN2CCN(CC=Cc3ccccc3)CC2)cs/c1=N/N=C\C=C\c1ccco1 [GAT0613, 1-((Z)-3-allyl-2-((E)-((E)-3-(furan-2-yl)allylidene)hydrazono)-2,3-dihydrothiazol-4-yl)-2-((4-cinnamylpiperazin-1-yl)amino)ethanone]
- IC50 ([1]; Leishmania infantum): > 25 µM
- IC50 ([2]; Leishmania braziliensis): 25 µM
- Trypanocidal activity on T. cruzi in words [3]: the activity was lost

- IC50 [3, 7]: 2.7 ± 0.5 µM
SMILES: C=CCn1c(C(=O)N2CCSCC2)csc1=NN=CC=Cc1ccco1 [GATjm18]
- Trypanocidal activity on T. cruzi in words [3]: the activity was maintained

SMILES: Clc1ccc(-c2csc(/N=C/C=C/c3ccco3)n2)cc1 [GAT2112, (E)-4-(4-Chlorophenyl)-N-((E)-3-(furan-2-yl)allylidene)thiazol-2-amine]
- Trypanocidal activity on T. cruzi in words [3]: the activity was lost

SMILES: O=C1/C(=C/C=C/c2cccs2)CCC/C1=C\C=C\c1cccs1 [EA156]
- IC50 ([1]; Leishmania infantum): 16 ± 3 µM
- SI NCTC/ L. infantum [1]: 124
- IC50 ([2]; Leishmania braziliensis): > 100 µM
- SI J774.1/ T. cruzi [4]: 33 ^c
- IC50 [4]: 0.6 ± 0.2 µM
- IC50 [5]: 1980 ± 20 µM
- IC50 [6]: 20 ± 1 µM

SMILES: O=C(C=Cc1ccco1)N1CCN(CC=Cc2ccccc2)CC1 [GAT0804]
- IC50 [3, 8]: > 25 µM

- IC50 [3, 7]: 11 ± 1 µM
SMILES: O=C(/C=C/C=C/c1ccccc1)/C=C/C=C/c1ccccc1 [EA139]
- IC50 ([1]; Leishmania infantum): > 25 µM
- IC50 ([2]; Leishmania braziliensis): > 25 µM
